The NIST ThermoML archive (doi:10.1007/s10765-007-0223-x)

Assay: xn = mol fraction of the nth substance listed
Settings: 101 kPa, Liquid; for speed of sound: Single path-length method

COC(C)(C)C [2-methoxy-2-methylpropane] + CC(C)CC(C)(C)C
Settings	mass density [kg/m3]	speed of sound [m/s]
288.15 K, x1 = 0.049	697.553	1121.8
288.15 K, x1 = 0.091	698.921	1119.5
288.15 K, x1 = 0.197	702.655	1113.9
288.15 K, x1 = 0.296	706.427	1108.7
288.15 K, x1 = 0.394	710.506	1103.7
288.15 K, x1 = 0.507	715.659	1098.5
288.15 K, x1 = 0.603	720.373	1094.9
288.15 K, x1 = 0.7	725.737	1090.9
288.15 K, x1 = 0.79	731.164	1087.8
288.15 K, x1 = 0.898	738.236	1084.6
288.15 K, x1 = 0.951	742.111	1083.4
288.15 K, x1 = 1	744.861	1082.1
290.65 K, x1 = 0.049	695.495	1111.2
290.65 K, x1 = 0.091	696.847	1108.8
290.65 K, x1 = 0.197	700.534	1103.3
290.65 K, x1 = 0.296	704.261	1097.9
290.65 K, x1 = 0.394	708.292	1092.9
290.65 K, x1 = 0.507	713.386	1087.6
290.65 K, x1 = 0.603	718.048	1083.9
290.65 K, x1 = 0.7	723.357	1079.8
290.65 K, x1 = 0.79	728.726	1076.7
290.65 K, x1 = 0.898	735.725	1073.3
290.65 K, x1 = 0.951	739.564	1072
290.65 K, x1 = 1	742.259	1070.6
293.15 K, x1 = 0.049	693.424	1100.6
293.15 K, x1 = 0.091	694.76	1098.2
293.15 K, x1 = 0.197	698.399	1092.6
293.15 K, x1 = 0.296	702.081	1087.1
293.15 K, x1 = 0.394	706.064	1082
293.15 K, x1 = 0.507	711.097	1076.7
293.15 K, x1 = 0.603	715.704	1072.9
293.15 K, x1 = 0.7	720.957	1068.7
293.15 K, x1 = 0.79	726.269	1065.5
293.15 K, x1 = 0.898	733.196	1062
293.15 K, x1 = 0.951	736.997	1060.6
293.15 K, x1 = 1	739.654	1059.1
295.65 K, x1 = 0.049	691.351	1090
295.65 K, x1 = 0.091	692.668	1087.5
295.65 K, x1 = 0.197	696.259	1081.8
295.65 K, x1 = 0.296	699.893	1076.2
295.65 K, x1 = 0.394	703.829	1071.1
295.65 K, x1 = 0.507	708.799	1065.6
295.65 K, x1 = 0.603	713.354	1061.7
295.65 K, x1 = 0.7	718.545	1057.5
295.65 K, x1 = 0.79	723.8	1054.2
295.65 K, x1 = 0.898	730.656	1050.5
295.65 K, x1 = 0.951	734.419	1049
295.65 K, x1 = 1	737.036	1047.8
298.15 K, x1 = 0.049	689.271	1079.4
298.15 K, x1 = 0.091	690.571	1076.9
298.15 K, x1 = 0.197	694.113	1071.2
298.15 K, x1 = 0.296	697.7	1065.5
298.15 K, x1 = 0.394	701.586	1060.2
298.15 K, x1 = 0.507	706.495	1054.7
298.15 K, x1 = 0.603	710.995	1050.7
298.15 K, x1 = 0.7	716.128	1046.4
298.15 K, x1 = 0.79	721.323	1042.9
298.15 K, x1 = 0.898	728.107	1039.2
298.15 K, x1 = 0.951	731.831	1037.6
298.15 K, x1 = 1	734.406	1036.6
300.65 K, x1 = 0.049	687.187	1068.9
300.65 K, x1 = 0.091	688.468	1066.3
300.65 K, x1 = 0.197	691.962	1060.5
300.65 K, x1 = 0.296	695.502	1054.7
300.65 K, x1 = 0.394	699.338	1049.4
300.65 K, x1 = 0.507	704.182	1043.8
300.65 K, x1 = 0.603	708.63	1039.7
300.65 K, x1 = 0.7	713.701	1035.2
300.65 K, x1 = 0.79	718.837	1031.7
300.65 K, x1 = 0.898	725.547	1027.9
300.65 K, x1 = 0.951	729.232	1026.2
300.65 K, x1 = 1	731.766	1025.4
303.15 K, x1 = 0.049	685.097	1058.4
303.15 K, x1 = 0.091	686.359	1055.8
303.15 K, x1 = 0.197	689.806	1050
303.15 K, x1 = 0.296	693.296	1044
303.15 K, x1 = 0.394	697.081	1038.7
303.15 K, x1 = 0.507	701.866	1032.8
303.15 K, x1 = 0.603	706.257	1028.7
303.15 K, x1 = 0.7	711.266	1024.1
303.15 K, x1 = 0.79	716.339	1020.4
303.15 K, x1 = 0.898	722.977	1016.5
303.15 K, x1 = 0.951	726.622	1014.8
303.15 K, x1 = 1	729.112	1014
305.65 K, x1 = 0.049	683.001	1048.1
305.65 K, x1 = 0.091	684.244	1045.4
305.65 K, x1 = 0.197	687.643	1039.5
305.65 K, x1 = 0.296	691.083	1033.4
305.65 K, x1 = 0.394	694.818	1028
305.65 K, x1 = 0.507	699.54	1021.9
305.65 K, x1 = 0.603	703.873	1017.7
305.65 K, x1 = 0.7	708.82	1013
305.65 K, x1 = 0.79	713.83	1009.2
305.65 K, x1 = 0.898	720.394	1005.2
305.65 K, x1 = 0.951	723.998	1003.4
305.65 K, x1 = 1	726.444	1002.7
308.15 K, x1 = 0.049	680.9	1037.7
308.15 K, x1 = 0.091	682.124	1035
308.15 K, x1 = 0.197	685.47	1029
308.15 K, x1 = 0.296	688.864	1022.8
308.15 K, x1 = 0.394	692.544	1017.6
308.15 K, x1 = 0.507	697.225	1011
308.15 K, x1 = 0.603	701.481	1006.8
308.15 K, x1 = 0.7	706.365	1002
308.15 K, x1 = 0.79	711.31	998.04
308.15 K, x1 = 0.898	717.802	993.91
308.15 K, x1 = 0.951	721.377	992.13
308.15 K, x1 = 1	723.763	991.34
310.65 K, x1 = 0.049	678.79	1027.3
310.65 K, x1 = 0.091	679.994	1024.6
310.65 K, x1 = 0.197	683.293	1018.5
310.65 K, x1 = 0.296	686.637	1012.2
310.65 K, x1 = 0.394	690.27	1006.9
310.65 K, x1 = 0.507	694.875	1000.2
310.65 K, x1 = 0.603	699.077	995.9
310.65 K, x1 = 0.7	703.915	991.12
310.65 K, x1 = 0.79	708.777	986.9
310.65 K, x1 = 0.898	715.208	982.76
310.65 K, x1 = 0.951	718.741	981.15
310.65 K, x1 = 1	721.069	980
313.15 K, x1 = 0.049	676.674	1017
313.15 K, x1 = 0.091	677.857	1014.4
313.15 K, x1 = 0.197	681.108	1008
313.15 K, x1 = 0.296	684.416	1001.9
313.15 K, x1 = 0.394	687.984	996.15
313.15 K, x1 = 0.507	692.513	989.48
313.15 K, x1 = 0.603	696.659	984.99
313.15 K, x1 = 0.7	701.432	980.08
313.15 K, x1 = 0.79	706.232	975.76
313.15 K, x1 = 0.898	712.585	971.49
313.15 K, x1 = 0.951	716.075	969.68
313.15 K, x1 = 1	718.357	968.63
315.65 K, x1 = 0.049	674.551	1006.8
315.65 K, x1 = 0.091	675.716	1004
315.65 K, x1 = 0.197	678.915	997.54
315.65 K, x1 = 0.296	682.172	991.38
315.65 K, x1 = 0.394	685.682	985.48
315.65 K, x1 = 0.507	690.141	978.73
315.65 K, x1 = 0.603	694.229	974.09
315.65 K, x1 = 0.7	698.938	969.06
315.65 K, x1 = 0.79	703.665	964.56
315.65 K, x1 = 0.898	709.948	960.23
315.65 K, x1 = 0.951	713.392	958.31
315.65 K, x1 = 1	715.636	957.31
318.15 K, x1 = 0.049	672.418	996.53
318.15 K, x1 = 0.091	673.564	993.65
318.15 K, x1 = 0.197	676.709	987.14
318.15 K, x1 = 0.296	679.911	980.84
318.15 K, x1 = 0.394	683.366	974.83
318.15 K, x1 = 0.507	687.763	968.07
318.15 K, x1 = 0.603	691.788	963.2
318.15 K, x1 = 0.7	696.427	958.04
318.15 K, x1 = 0.79	701.097	953.55
318.15 K, x1 = 0.898	707.292	949.03
318.15 K, x1 = 0.951	710.693	947.02
318.15 K, x1 = 1	712.897	946.03
320.65 K, x1 = 0.049	670.282	986.33
320.65 K, x1 = 0.091	671.436	983.34
320.65 K, x1 = 0.197	674.493	976.73
320.65 K, x1 = 0.296	677.642	970.3
320.65 K, x1 = 0.394	681.043	964.2
320.65 K, x1 = 0.507	685.37	957.34
320.65 K, x1 = 0.603	689.334	952.36
320.65 K, x1 = 0.7	693.905	947.08
320.65 K, x1 = 0.79	698.504	942.46
320.65 K, x1 = 0.898	704.622	937.81
320.65 K, x1 = 0.951	707.978	935.72
320.65 K, x1 = 1	710.141	934.76
323.15 K, x1 = 0.049	668.138	976.18
323.15 K, x1 = 0.091	669.267	973.04
323.15 K, x1 = 0.197	672.267	966.34
323.15 K, x1 = 0.296	675.361	959.8
323.15 K, x1 = 0.394	678.707	953.63
323.15 K, x1 = 0.507	682.969	946.69
323.15 K, x1 = 0.603	686.867	941.57
323.15 K, x1 = 0.7	691.375	936.24
323.15 K, x1 = 0.79	695.909	931.51
323.15 K, x1 = 0.898	701.938	926.65
323.15 K, x1 = 0.951	705.25	924.5
323.15 K, x1 = 1	707.381	923.46
